Source: patent US20210393742A1, “LONG-ACTING INTERLEUKIN-15 RECEPTOR AGONIST IN COMBINATION WITH ANOTHER PHARMACOLOGICALLY ACTIVE AGENT” (Nektar Therapeutics, priority 2018, published 2021)

How the values were obtained:
[1] = system: human multiple myeloma RPMI-8226 cells; test: NK cell cytotoxicity (ADCC) against daratumumab pre-coated RPMI-8226 cells (Example 9); format: cell-based; conditions: NK cells primed with 1000 ng/mL overnight; targets pre-coated with daratumumab 100 ng/mL; E:T 10:1, 3 hr
Method: Human NK cells were magnetically sorted from normal donor PBMCs using negative selection. NK cells were seeded in a 96-well U-bottom plate at a density of 400,000 cells/well. NK cells were stimulated with 1000 ng/mL of a long-acting IL-15 receptor agonist (mono(mPEG-butanamide)IL-15) (+) or left unstimulated (−) in complete RPMI-1640 media supplemented with 10% fetal bovine serum (FBS) and 1% antibiotic/antimycotic overnight at 37° C. in 5% CO2.
The human multiple myeloma RPMI-8226 cells (ATCC #CCL-155) were washed in PBS and stained with 0.15 μM CFSE for 5 min at 37° C. The tumor cells were pre-coated with 100 ng/mL daratumumab (+) for 1 hr at 37° C. where indicated. The stimulated NK cells (effector cells) and the pre-coated CFSE-labeled tumor cells (target cells) were co-cultured in an E:T ratio of 10:1 for 3 hr at 37° C. in 5% CO2. Following incubation, cells were washed in flow staining buffer, Fc-blocked for 15 min at 4° C., and surface-stained (CD45, CD56, CD3-fluorescently conjugated antibodies). The cells were washed in PBS and incubated in 7-aminoactinomycin (7-AAD) viability stain for 30 minutes at 4° C. before acquiring for flow cytometric analysis using a Fortessa (BD). The percentage of 7-AAD+CFSE+ target cells from total cell population is the percentage for dead tumor cells.

[2] = system: H1975 lung carcinoma cells; test: Tumor growth in H1975 lung tumor model (Example 17); format: in vivo, mice; conditions: day 27 after treatment initiation; cetuximab 0.25 mg/kg IP x3; Compound 1 0.3 mg/kg IV x3
Method: Delay in loss of tumor growth control was evaluated on day 27 after treatment initiation.

[3] = system: SKOV-3 cells; test: Tumor growth inhibition in SKOV-3 ovarian carcinoma model (Example 21); format: in vivo, mice; conditions: 35 days after treatment initiation; trastuzumab 13.5 mg/kg IV x6; Compound 1 0.3 mg/kg IV x3
Method: Tumor growth inhibition in inoculated mice was measured 35 days after treatment initiation.

[4] = system: HT-29 colorectal carcinoma cells; test: Tumor growth inhibition and delay in HT-29 colorectal carcinoma model (Example 18); format: in vivo, mice; conditions: day 21 after treatment initiation; cetuximab 40 mg/kg IP x6; Compound 1 0.3 mg/kg IV x3
Method: Tumor growth inhibition was evaluated on day 21 after treatment initiation.
The tumor growth delay (TVQT) was evaluated with the endpoint set as 400% tumor growth from baseline.

[5] = system: CD56+ human NK cells; test: Dose response of human NK cell proliferation in CFSE labeled PBMCs (Example 8); format: cell-based; conditions: 5 days
Method: Human peripheral blood mononuclear cell (PBMCs) labeled with a CFSE preparation were incubated for 5 days in vitro in the presence of increasing doses of rhIL-15 (dose range 1 ng/ml-100 ng/ml, 5 point, 3 fold dilutions) or a long-acting IL-15 receptor agonist (mono(mPEG-butanamide)IL-15) (dose range 10 ng/ml-1000 ng/ml, 5 point, 3 fold dilutions). After the incubation period, cell proliferation as indicated by the decrease of CFSE in the cells that had undergone cell doublings was measured with flow cytometry measuring CFSE levels in CD56+ human NK cells within the PBMCs preparation.

[6] = system: CD56+ human NK cells; test: Human NK cell proliferation in CFSE labeled PBMCs (Example 5); format: cell-based; conditions: 5 days; Conjugate 1 100 ng/ml; plate coated with hIgG 0.1 mg/ml
Method: NK cell proliferation within a human peripheral blood mononuclear cell (PBMCs) labeled with CFSE preparation was induced in vitro. The CFSE labeled PBMCs were incubated for 5 days in vitro in the presence of (i) mono(methoxyPEG-N-butanamide)40 kD interleukin-15 (Conjugate 1) at a concentration of 100 ng/ml; (ii) on cell culture plastic that had been prior coated overnight with human total immunoglobulin G (hIgG) solution at a concentration of 0.1 mg/ml (iii) on cell culture plastic that had been prior coated overnight with human total immunoglobulin G (hIgG) solution at a concentration of 0.1 mg/ml and in the presence of Conjugate 1 at a concentration of 100 ng/ml; or (iv) on regular cell culture plastic. After the incubation period, cell proliferation as indicated by the decrease of CFSE in the cells that had undergone cell doublings was measured with flow cytometry (FIGS. 8A-8D) measuring CFSE levels in CD56+ human NK cells within the PBMCs preparation in each of the four incubation conditions.

[7] = system: Daudi B cell lymphoma; test: NK cell counts, Daudi cell counts and granzyme B in bone marrow, Daudi xenograft model, combination with daratumumab (Example 2); format: in vivo, mice
Method: SCID mice (N=6/group) were intravenously inoculated with 1×10^7 Daudi cells on Day 0 and treated with a single dose of the anti-human CD38 antibody, daratumumab (0.5 mg/kg IP, 14 days following Daudi cell inoculation) and two doses of mono(methoxyPEG-N-butanamide)interleukin-15 (0.3 mg/kg SC, one dose at each of 14 and 21 days after inoculation). Mice were also treated with the single agent therapies: daratumumab (0.5 mg/kg IP, 14 days following Daudi cell inoculation) or two doses of mono(methoxyPEG-N-butanamide)40 kD interleukin-15 (0.3 mg/kg SC, 14 and 21 days after inoculation).
(One-way ANOVA, Tukey's multiple comparison test).

[8] = system: human B cell lymphoma (Daudi) cells; test: ADCC of rituximab-coated target cells by primed human NK cells (Example 12); format: cell-based; conditions: NK cells primed with 300 ng/mL overnight; rituximab 10 ng/mL; E:T 2:1, 3 hr
Method: Human NK cells were magnetically sorted from normal donor PBMCs using negative selection. NK cells were seeded in a 96-well U-bottom plate at a density of 80,000 cells/well (FIG. 15A) OR 400,000 cells/well (FIG. 15B). NK cells were stimulated with 300 ng/mL of a long-acting IL-15 receptor agonist (mono(mPEG-butanamide)IL-15) (+) or left unstimulated (−) in complete RPMI-1640 media supplemented with 10% fetal bovine serum (FBS) and 1% antibiotic/antimycotic overnight at 37° C. in 5% CO2.
Alternatively, the human B cell lymphoma (Daudi) cells were washed in PBS and stained with 0.3 μM CFSE for 5 min at 37° C. The rituximab-coated (+10 ng/mL) CFSE-labeled tumor (target cells) cells were concurrently co-cultured with the NK cells (effector cells) in an E:T ratio of 2:1 for 3 hr at 37° C. in 5% CO2. Following incubation, cells were washed in flow staining buffer, Fc-blocked for 15 min at 4° C., and surface-stained (CD45, CD56, CD3-fluorescently conjugated antibodies). The cells were washed in PBS and incubated in 7-aminoactinomycin (7-AAD) viability stain for 30 minutes at 4° C. before acquiring for flow cytometric analysis using a Fortessa (BD). The percentage of 7-AAD+ CFSE+ target cells from total cell population is the percentage for dead tumor cells.

mono(methoxyPEG-N-butanamide)40 kD interleukin-15 [Conjugate 1]
ADCC, % 7-AAD+ target cells [1]: enhanced ADCC of daratumumab pre-coated multiple myeloma cells
tumor growth control [2]: no tumor growth inhibition
tumor growth inhibition [3]: no tumor growth inhibition
tumor growth inhibition [4]: no tumor growth inhibition
EC50 (ng/ml)-% proliferation [5]: 39.04 ng/mL
Emax-% proliferation [5]: 71.6%
potency in inducing human NK cell proliferation, fold less than rhIL-15 [5]: approximately 17 fold
% CD56+ NK cells proliferating [6]: 49.7%
granzyme B expression in bone marrow NK cells ([7]; alone or in combination with daratumumab): increase granzyme B expression
increase in NK cell count in bone marrow ([7]; day 24, agonist 0.3 mg/kg SC days 14 and 21, daratumumab 0.5 mg/kg IP day 14): 10 fold
ADCC, % 7-AAD+ target cells [8]: enhance ADCC
